Laboratory results: patent US6043231A, “Inhibition of excessive phospholipase A2 activity and/or production by non-antimicrobial tetracyclines” (The Research Foundation of State Univ. of New York, priority 1993, dated 2000)
Values belong to the compound of their own block, whether it stands above or below them.

Legend:
Format in all cases: biochemical
porcine pancreatic PLA2 = target: T1, porcine pancreatic PLA2 (Sus scrofa, UniProt P00592); assay: PLA2 inhibition, E. coli assay, porcine pancreatic PLA2
T1 construct: labelled E. coli membrane substrate
T1 sequence (P00592 23-146): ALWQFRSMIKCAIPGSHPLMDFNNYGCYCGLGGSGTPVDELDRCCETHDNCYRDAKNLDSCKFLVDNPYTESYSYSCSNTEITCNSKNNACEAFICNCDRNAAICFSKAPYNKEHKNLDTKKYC
Procedure: (§1) Six different chemically-modified tetracyclines, including CMT-1 (4-dedimethylaminotetracycline), CMT-2 (tetracyclinonitrile), CMT-3 (6-demethyl-6-deoxy-4-de-dimethylaminotetracycline), CMT-4 (4-de-dimethylamino-7-chloro-tetracycline), CMT-5 (pyrazole analog) and CMT-6 (4-hydroxy-4-dedimethylaminotetracycline), were examined for their ability to inhibit PLA2 activity in vitro. The sources of PLA2 that were tested included recombinant human PLA2, human pancreatic and porcine pancreatic PLA2 and Naja naja PLA2. […] Various concentrations of CMTs, ranging from 5-100 μg/ml, were preincubated with the different PLA2 enzymes for 30 minutes and the mixture was tested for PLA2 activity using a known E. coli assay method (see Arthritis and Rheumatism, 34 Supp. 9: p. S160 (abst C167)).
(§2) A chemically-modified tetracycline, 4-dedimethyl-amino-7-dimethylaminotetracycline (CMT-10), was examined for its ability to inhibit PLA2 activity in vitro. The sources of PLA2 that were tested included were recombinant human PLA2 (snpPLA2), human pancreatic and porcine pancreatic PLA2 and Naja naja PLA2. […] Various concentrations of CMT-10, ranging from 5-100 μg/ml, were preincubated with the different PLA2 enzymes for 30 minutes and the mixture was tested for PLA2 activity using a known E. coli assay method (see Arthritis and Rheumatism, 34 Supp. 9: p. S160 (abst C167)).
(§3) In particular, [^14 C]Oleic acid-labelled Escherichia coli (strain K12 C600) were used as the substrate. This substrate has been characterized with respect to phospholipid composition and distribution of radiolabel. Reaction mixtures contained 10 mg bovine serum albumin, 2 mM CaCl2, 2.8×10^8 radiolabelled E. coli and 0.1 M Tris-HCl buffer, pH 7.5 in a total volume of 1.5 ml. Reaction mixtures were incubated at 37° C. for 30 min. The reaction was terminated by filtration through a 0.45 μm Millipore filter, thereby retaining unhydrolysed E. coli membranes, and allowing the [^14 C]oleic acid bound to the BSA carrier, released as a result of PLA2 hydrolysis, to pass through the filter. Assays were performed in duplicate and values shown represent the mean of two determinations with a SD<5% of the mean. Assays were performed in substrate excess and enzyme activities were corrected for non-enzymatichydrolysis. One unit of PLA2 activity is defined as the hydrolysis of 56 pmol of phospholipid substrate (representing 1% of total E. coli phospholipid) in 30 min at 37° C.

human pancreatic PLA2 = target: T2, human pancreatic PLA2 (Homo sapiens, UniProt P04054); assay: PLA2 inhibition, E. coli assay, human pancreatic PLA2
T2 construct: labelled E. coli membrane substrate
T2 sequence (P04054 23-148): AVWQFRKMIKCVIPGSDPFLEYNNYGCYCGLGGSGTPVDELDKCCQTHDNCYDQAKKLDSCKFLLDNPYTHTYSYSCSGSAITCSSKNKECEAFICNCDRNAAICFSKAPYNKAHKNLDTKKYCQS
Procedure: as §1, §2, §3

[1] = target: T3, recombinant human PLA2 (snpPLA2) (Homo sapiens, UniProt P14555); assay: PLA2 inhibition, radiolabelled E. coli assay, recombinant human PLA2
T3 sequence (P14555 21-144): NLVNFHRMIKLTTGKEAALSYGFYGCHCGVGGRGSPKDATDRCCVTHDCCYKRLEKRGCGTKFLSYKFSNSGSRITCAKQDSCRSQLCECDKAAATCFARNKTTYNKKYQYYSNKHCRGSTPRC
Procedure: as §1, §2, §3

[2] = concentrations of 25 μg/ml or greater
[3] = recombinant human PLA2, 30 min preincubation

Structure (SMILES): CC1(O)c2cccc(O)c2C(=O)C2=C(O)C3(O)C(=O)C(C(N)=O)=C(O)CC3CC21 (stereo not drawn) [CMT-1, 4-dedimethylaminotetracycline]
- inhibition of porcine pancreatic PLA2 (porcine pancreatic PLA2): found to inhibit
- inhibition of human pancreatic PLA2 (human pancreatic PLA2): found to inhibit
- PLA2-inhibitory activity [1, 2]: exhibited significant PLA2 -inhibitory activity
- IC50 (concentration of the drug required to inhibit 50% of PLA2) [1, 3]: 37 µg/mL

Structure (SMILES): CN(C)C1C(=O)C(C#N)=C(O)C2(O)C(=O)C3=C(O)c4c(O)cccc4C(C)(O)C3CC12 (stereo not drawn) [CMT-2, tetracyclinonitrile]
- PLA2-inhibitory activity ([1]; highest concentrations tested (range 5-100 μg/ml)): lacked any PLA2 -inhibitory activity

- inhibition of porcine pancreatic PLA2 (porcine pancreatic PLA2): found to inhibit
- inhibition of human pancreatic PLA2 (human pancreatic PLA2): found to inhibit
- IC50 ([1]; recombinant human PLA2, 30 min preincubation, read-out: IC50 (concentration of the drug required to inhibit 50% of PLA2) (converted)): 75.4 µM
Structure (SMILES): NC(=O)C1=C(O)C2(O)C(=O)C3=C(O)c4c(O)cccc4CC3CC2CC1=O (stereo not drawn) [CMT-3, 6-demethyl-6-deoxy-4-de-dimethylaminotetracycline]
- PLA2-inhibitory activity [1, 2]: exhibited significant PLA2 -inhibitory activity

Structure (SMILES): CC1(O)c2c(Cl)ccc(O)c2C(=O)C2=C(O)C3(O)C(=O)C(C(N)=O)=C(O)CC3CC21 (stereo not drawn) [CMT-4, 4-de-dimethylamino-7-chloro-tetracycline]
- inhibition of porcine pancreatic PLA2 (porcine pancreatic PLA2): found to inhibit
- inhibition of human pancreatic PLA2 (human pancreatic PLA2): found to inhibit
- PLA2-inhibitory activity [1, 2]: exhibited significant PLA2 -inhibitory activity
- IC50 (concentration of the drug required to inhibit 50% of PLA2) [1, 3]: 42 µg/mL

Structure (SMILES): CC1(O)c2cccc(O)c2C(=O)C2=C(O)C3(O)C(=O)C(C(N)=O)=C(O)C(O)C3CC21 (stereo not drawn) [CMT-6, 4-hydroxy-4-dedimethylaminotetracycline]
- inhibition of porcine pancreatic PLA2 (porcine pancreatic PLA2): found to inhibit
- inhibition of human pancreatic PLA2 (human pancreatic PLA2): found to inhibit
- PLA2-inhibitory activity [1, 2]: exhibited significant PLA2 -inhibitory activity
- IC50 (concentration of the drug required to inhibit 50% of PLA2) [1, 3]: 17 µg/mL

Structure (SMILES): CN(C)c1ccc(O)c2c1C(C)(O)C1CC3CC(O)=C(C(N)=O)C(=O)C3(O)C(O)=C1C2=O (stereo not drawn) [CMT-10, 4-dedimethylamino-7-dimethylaminotetracycline]
- inhibition of human pancreatic PLA2 (human pancreatic PLA2): found to inhibit
- % inhibition (human pancreatic PLA2; 30 μg/ml, human pancreatic PLA2): 66%
- PLA2-inhibitory activity [1, 2]: exhibited significant PLA2 -inhibitory activity
- IC50 (concentration of the drug required to inhibit 50% of PLA2) [1, 3]: 30 µg/mL
